Measurements published in article PMC3196794 (Chemical research in toxicology, 2011).
Where two headings read alike, the source gives them in different places.

Tests used:
hSULT2A1 [1] = biological target: T1, hSULT2A1 (Homo sapiens, UniProt Q06520); test: Inhibition of the sulfation of DHEA catalyzed by hSULT2A1; type: biochemical
T1 sequence (Q06520 1-285): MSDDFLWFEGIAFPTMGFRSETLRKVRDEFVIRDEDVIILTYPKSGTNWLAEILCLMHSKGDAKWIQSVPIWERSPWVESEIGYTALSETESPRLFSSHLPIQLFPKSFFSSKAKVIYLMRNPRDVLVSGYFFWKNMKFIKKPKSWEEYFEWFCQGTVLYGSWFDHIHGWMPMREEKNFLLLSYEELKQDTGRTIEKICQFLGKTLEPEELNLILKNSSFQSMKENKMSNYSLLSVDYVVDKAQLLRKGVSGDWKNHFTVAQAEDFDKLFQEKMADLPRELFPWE

hSULT2A1 [2] = biological target: T1, hSULT2A1; test: CoMFA 3D-QSAR model for inhibition of hSULT2A1 by OHPCBs; conditions: for Difference between the experimental and the predicted values for pIC50: CoMFA Model 1
hSULT2A1 [3] = biological target: T1, hSULT2A1; test: OHPCBs as substrates for hSULT2A1; type: biochemical; conditions: 200 μM PAPS; fit to substrate inhibition equation
[4] = pH 7
hSULT2A1 [5] = biological target: T1, hSULT2A1; conditions: 200 μM PAPS; cited from earlier work
[6] = IC50 (inhibition of the sulfation of DHEA catalyzed by hSULT2A1), 1 μM [3H]DHEA, 200 μM PAPS, pH 7.0, 37°C, 10 min, mean ± standard error of the fit
[7] = Actual pIC50, -log IC50 (M), Table 3

Compound	IC50 (hSULT2A1 [1]; [6]) [M]	Difference between the experimental and the predicted values for pIC50 (hSULT2A1 [2])	IC50 (hSULT2A1 [1]; [7]) [M]	Kis (substrate inhibition constant) (hSULT2A1 [3]) [µM]	also measured
Oc1ccc(-c2ccc(Cl)cc2)cc1O [3′,4′-diOHPCB 3, 3′, 4′-dihydroxy-4-monochlorobiphenyl]	9.6e-05 ± 1.2e-06	0.072	–	–	IC50 (hSULT2A1 [1]; IC50 (experimental, Table 3), experimental values used for CoMFA Model 1): 9.57e-05 M
Oc1ccc(-c2cccc(Cl)c2Cl)cc1O [3′,4′-diOHPCB 5, 3′, 4′-dihydroxy-2,3-dichlorobiphenyl]	1.6e-05 ± 1.1e-06	0.054	1.59e-05	–	–
Oc1ccc(-c2ccc(Cl)cc2)c(Cl)c1 [4-OHPCB 8, 4-hydroxy-2, 4′-dichlorobiphenyl]	1e-05 ± 1.2e-06	0.303	1e-05	65.4 ± 73.8	–
Oc1ccc(-c2cccc(Cl)c2)cc1Cl [4-OHPCB 11, 4-hydroxy-3, 3′-dichlorobiphenyl]	1.4e-05 ± 1.2e-06	0.011	1.4e-05	51.9 ± 65.7	–
Oc1c(Cl)cc(-c2ccccc2)cc1Cl [4-OHPCB 14, 4-hydroxy-3,5-dichlorobiphenyl]	1.3e-05 ± 1.1e-06	0.196	1.3e-05	220 ± 56	IC50 (hSULT2A1 [1]; Actual IC50, Table 4): 1.3e-05 M; fold difference between the predicted and the actual IC50 values (hSULT2A1 [2]; CoMFA Model 2): 3.8 fold
Oc1c(Cl)cc(-c2ccccc2Cl)cc1Cl [4-OHPCB 34, 4-hydroxy-2′, 3,5-trichlorobiphenyl]	–	0.199	6e-07	47.4 ± 16.2	fold decrease in IC50 compared with 4-OHPCB 36 (hSULT2A1 [1]; chlorine in the non-phenolic ring changed from meta to ortho): approximately 7 fold
Oc1c(Cl)cc(-c2cccc(Cl)c2)cc1Cl [4-OHPCB 36, 4-hydroxy-3, 3′, 5-trichlorobiphenyl]	4.4e-06 ± 1.2e-06	0.088	4.4e-06	39.4 ± 23.1	–
Oc1ccc(-c2ccc(Cl)cc2)cc1 [4′-OHPCB 3, 4′-hydroxy-4-monochlorobiphenyl]	2.8e-05 ± 1.1e-06	0.026	2.81e-05	–	–
Oc1ccc(-c2ccccc2Cl)cc1Cl [4′-OHPCB 6, 4′-hydroxy-2, 3′-dichlorobiphenyl]	9.8e-06 ± 1.1e-06	0.108	9.79e-06	–	–
Oc1ccc(-c2cc(Cl)ccc2Cl)cc1 [4′-OHPCB 9, 4′-hydroxy-2,5-dichlorobiphenyl]	7.5e-06 ± 1.1e-06	0.011	7.5e-06	–	–
Oc1ccc(-c2ccc(Cl)c(Cl)c2)cc1 [4′-OHPCB 12, 4′-hydroxy-3,4-dichlorobiphenyl]	1.6e-05 ± 1.1e-06	0.039	1.58e-05	–	IC50 (hSULT2A1 [1]; Actual IC50, Table 4): 1.58e-05 M
Oc1ccc(-c2ccc(Cl)cc2Cl)cc1Cl [4′-OHPCB 25, 4′-hydroxy-2, 3′, 4-trichlorobiphenyl]	4.4e-06 ± 1.3e-06	0.084	4.4e-06	–	IC50 (hSULT2A1 [1]; Actual IC50, Table 4): 4.4e-06 M; solubility [4]: low solubility
Oc1ccc(-c2ccc(Cl)c(Cl)c2)c(Cl)c1 [4′-OHPCB 33, 4′-hydroxy-2′, 3,4-trichlorobiphenyl]	2.5e-06 ± 1.1e-06	0.099	2.5e-06	217 ± 189	–
Oc1c(Cl)cc(-c2ccc(Cl)cc2Cl)cc1Cl [4′-OHPCB 68, 4′-hydroxy-2, 3′, 4, 5′-tetrachlorobiphenyl]	–	0.056	8e-07	–	–
Oc1ccc(Cl)cc1-c1ccc(Cl)c(Cl)c1 [6′-OHPCB 35, 6′-hydroxy-3, 3′-4 trichlorobiphenyl]	–	0.088	–	–	Actual pIC50 (hSULT2A1 [1]; -log IC50 (M), Table 3): 4.810; IC50 (hSULT2A1 [1]; read-out: IC50 (inhibition of the sulfation of DHEA catalyzed by hSULT2A1), 1 μM [3H]DHEA, 200 μM PAPS, pH 7.0, 37°C, 10 min, mean ± standard error of the fit): 1.6e-05 ± 1.1e-06 M
C[C@]12CC[C@H](O)CC1=CC[C@@H]1[C@@H]2CC[C@]2(C)C(=O)CC[C@@H]12 [DHEA, dehydroepiandrosterone]	–	–	–	–	Kis with DHEA as substrate (hSULT2A1 [5]): 8 ± 3 µM; Vmax with DHEA as substrate (hSULT2A1 [5]): 245 ± 40 nmol/min/mg
